The values that follow come from patent publication US4169197A, “6-Deoxyneamines aminoglycoside compounds” (The Upjohn Company, priority 1978, dated 1979).

Converted amounts (≈) assume the structure as drawn. Like-named read-outs stand apart in the source and are kept apart here.

Holding throughout (type): cell-based
One assay relates to S. aureus UC 80. Put plainly: standard disc plate assay, zones of inhibition. The note with it: Staphylococcus aureus, 12.5 mm paper discs; for zone of inhibition at 100 µg/mL: 0.1 mg/ml. The text has this:
(§1) The compounds of formulas (V, VII, IX, XI, XIV, XVI, and XIX) are active as antibacterials and can be used in various environments to erradicate or control susceptible microorganisms. Tables I and II set forth the in vitro antibacterial test results for representative compounds of the present invention. The results were obtained with a standard disc plate assay using 12.5 mm paper discs.

The next assay relates to B. cereus UC 3145. Put plainly: standard disc plate assay, zones of inhibition. The note with it: Bacillus cereus, 12.5 mm paper discs.
Text: as §1

Assay [1] has as its system S. schottmuelleri UC 126. Put plainly: standard disc plate assay, zones of inhibition. The note with it: 1 mg/ml, 12.5 mm paper discs.
Text: as §1

A further assay deals with E. coli UC 51. Briefly: standard disc plate assay, zones of inhibition. As to conditions: Escherichia coli, UC51, 12.5 mm paper discs, read-out: Zones of Inhibition; for zone of inhibition at 1000 µg/mL: 1 mg/ml; for zone of inhibition at 100 µg/mL: 0.1 mg/ml.
Text: as §1

The test system of the next assay is K. pneumoniae UC 57. Put plainly: standard disc plate assay, zones of inhibition. The note with it: Klebsiella pneumoniae, UC57, 12.5 mm paper discs, read-out: Zones of Inhibition; for zone of inhibition at 1000 µg/mL: 1 mg/ml; for zone of inhibition at 100 µg/mL: 0.1 mg/ml.
Text: as §1

The test system of a further assay is S. gallinarum UC 265. Put plainly: standard disc plate assay, zones of inhibition. As to conditions: Salmonella enterica, 12.5 mm paper discs, read-out: Zones of Inhibition; for zone of inhibition at 1000 µg/mL: 1 mg/ml; for zone of inhibition at 100 µg/mL: 0.1 mg/ml.
Text: as §1

Assay [2] relates to P. vulgaris UC 93. Briefly: standard disc plate assay, zones of inhibition. As to conditions: Proteus vulgaris, UC93, 1 mg/ml, 12.5 mm paper discs, read-out: Zones of Inhibition.
Text: as §1

A further assay concerns B. subtilis UC 564. Briefly: standard disc plate assay, zones of inhibition. The note with it: Bacillus subtilis, UC564, 12.5 mm paper discs, read-out: Zones of Inhibition; for zone of inhibition at 100 µg/mL: 0.1 mg/ml; for zone of inhibition at 1000 µg/mL: 1 mg/ml.
Text: as §1

The next assay concerns S. flexneri UC 143. Put plainly: standard microplate test in BHI Agar. The note with it: Shigella flexneri, UC143, 37°, 20 hours, Table IV, read-out: Minimal Inhibitory Concentration. On the procedure: (§2) The compounds VII, XI, XVβ, XVα and XVI were tested in a standard microplate test in BHI (Brain Heart Infusion) Agar at a concentration of 1 mg./ml. and dilutions thereof at 37° incubation temperature. The end points are read out 20 hours. BHI Agar is supplied by Difco Laboratories, Detroit, Mich.

For a further assay, the system named is S. pneumoniae I UC 41. Briefly: standard microplate test in BHI Agar. As to conditions: Streptococcus pneumoniae, read-out: Minimal Inhibitory Concentration. The method, then: as §2
The next assay deals with S. typhi UC 215. Put plainly: standard microplate test in BHI Agar. The note with it: Salmonella enterica, 20 h, read-out: Minimal Inhibitory Concentration. The method, then: as §2
The test system of assay [3] is S. schottmuelleri UC 126. Put plainly: standard microplate test in BHI Agar. As to conditions: 37°, 20 hours, Table IV, read-out: Minimal Inhibitory Concentration. The method, then: as §2
The subject of the next assay is S. pyogenes UC 152. Briefly: standard microplate test in BHI Agar. As to conditions: Streptococcus pyogenes, read-out: Minimal Inhibitory Concentration. On the procedure: as §2
The next assay has as its system P. mirabilis UC 6671. Briefly: standard microplate test in BHI Agar. The note with it: Proteus mirabilis, UC6671; BHI Agar, 37°, 20 hours; Table IV; read-out: Minimal Inhibitory Concentration. The method, then: as §2
Another assay has as its system S. aureus UC 76. Briefly: standard microplate test in BHI Agar. The note with it: Staphylococcus aureus, read-out: Minimal Inhibitory Concentration. On the procedure:
as §2

A further assay relates to S. faecalis UC 694. Briefly: standard microplate test in BHI Agar. The note with it: Enterococcus faecalis, UC694, 20 h, read-out: Minimal Inhibitory Concentration. On the procedure:
as §2

Assay [4] has as its system Ps. aeruginosa UC 95. Put plainly: standard microplate test in BHI Agar. The note with it: Pseudomonas aeruginosa, UC95; BHI Agar, 37°, 20 hours; Table IV; read-out: Minimal Inhibitory Concentration. The method, then:
as §2

For a further assay, the system named is P. rettgeri UC 339. Briefly: standard microplate test in BHI Agar. The note with it: Providencia rettgeri, UC339; BHI Agar, 37°, 20 hours; Table IV; read-out: Minimal Inhibitory Concentration. On the procedure:
as §2

Another assay deals with P. morganii UC 3186. Briefly: standard microplate test in BHI Agar. As to conditions: Morganella morganii, read-out: Minimal Inhibitory Concentration. The method, then:
as §2

Assay [5] relates to P. vulgaris UC 93. Put plainly: standard microplate test in BHI Agar. The note with it: Proteus vulgaris, UC93; BHI Agar, 37°, 20 hours; Table IV; read-out: Minimal Inhibitory Concentration. The method, then:
as §2

The next assay concerns E. coli UC 311. Briefly: standard microplate test in BHI Agar. As to conditions: Escherichia coli, UC311; BHI Agar, 37°, 20 hours; Table IV; read-out: Minimal Inhibitory Concentration. On the procedure:
as §2

The next assay relates to S. marcescens UC 131. Briefly: standard microplate test in BHI Agar. As to conditions: Serratia marcescens, UC131; BHI Agar, 37°, 20 hours; Table IV; read-out: Minimal Inhibitory Concentration. On the procedure: as §2
Another assay concerns K. pneumoniae UC 58. Briefly: standard microplate test in BHI Agar. The note with it: Klebsiella pneumoniae, read-out: Minimal Inhibitory Concentration. The method, then:
as §2

The subject of a further assay is S. lutea UC 130. Put plainly: standard disc plate assay, zones of inhibition. As to conditions: Micrococcus luteus, UC130, 1 mg/ml, 12.5 mm paper discs, read-out: Zones of Inhibition.
Text: as §1

The subject of assay [6] is Ps. aeruginosa UC 95. Briefly: standard disc plate assay, zones of inhibition. As to conditions: Pseudomonas aeruginosa, UC95; 1 mg/ml; 12.5 mm paper discs; Table II; read-out: Zones of Inhibition.
Text: as §1

With `NC[C@H]1O[C@H](O[C@@H]2[C@@H](N)C[C@@H](N)C[C@H]2O[C@@H]2C[C@@H](N)[C@H](O)[C@@H](CO)O2)[C@H](N)[C@@H](O)[C@@H]1O` [Compound XVI, O-2,6-diamino-2,6-dideoxy-α-D-glucopyranosyl (1→4)-O-[3-amino-2,3-dideoxy-α-D-arabinohexopyranosyl(1→5)]-2,6-dideoxy-D-streptamine], the zone of inhibition at 1000 µg/mL in the assay with S. aureus UC 80 (UC80, read-out: Zones of Inhibition, 1 mg/ml, Table I) was found to be 21 mm; with B. cereus UC 3145 (UC3145, 1 mg/ml, Table I, read-out: Zones of Inhibition), 18 mm; in the assay on S. schottmuelleri UC 126 [1] (Table I), 15 mm; in the assay with E. coli UC 51 (Table I), 19 mm; in the assay on K. pneumoniae UC 57 (Table I) it was 24 mm; in the assay with S. gallinarum UC 265 (Table I), 20 mm. Also, the zone of inhibition at 1000 µg/mL in the assay on P. vulgaris UC 93 [2] (Table I) is 18 mm; in the assay on B. subtilis UC 564 (Table I) it was 34 mm. Moreover, the zone of inhibition at 100 µg/mL with B. subtilis UC 564 (Table I) stood at 25 mm. In addition, the MIC in the assay on S. flexneri UC 143 is more than 500 µg/mL; in the assay on S. pneumoniae I UC 41 (UC41, BHI Agar, 37°, 20 hours, Table IV (printed D. pneumoniae UC 41)) it was more than 500 µg/mL; with S. typhi UC 215, more than 500 µg/mL; with S. schottmuelleri UC 126 [3] it was more than 500 µg/mL; with S. pyogenes UC 152 (UC152, BHI Agar, 37°, 20 hours, Table IV), 250 µg/mL (≈ 554 µM); with P. mirabilis UC 6671, more than 500 µg/mL. Besides, the MIC is 250 µg/mL (≈ 554 µM) in the assay with S. aureus UC 76 (UC76, BHI Agar, 37°, 20 hours, Table IV); more than 500 µg/mL with S. faecalis UC 694; more than 500 µg/mL in the assay on Ps. aeruginosa UC 95 [4]; more than 500 µg/mL in the assay on P. rettgeri UC 339; 250 µg/mL (≈ 554 µM) with P. morganii UC 3186 (UC3186, BHI Agar, 37°, 20 hours, Table IV); more than 500 µg/mL in the assay with P. vulgaris UC 93 [5]. For the same compound, the MIC was more than 500 µg/mL in the assay on E. coli UC 311; more than 500 µg/mL with S. marcescens UC 131; 125 µg/mL (≈ 277 µM) with K. pneumoniae UC 58 (UC58, BHI Agar, 37°, 20 hours, Table IV).
As for `NC[C@H]1O[C@H](O[C@@H]2[C@@H](N)C[C@@H](N)C[C@@H]2O)[C@H](N)[C@@H](O)[C@@H]1O` [6-Deoxy-5-epineamine (XI), 6-deoxy-5-epineamine], the zone of inhibition at 100 µg/mL in the assay with S. aureus UC 80 (UC80, Table II, read-out: Zones of Inhibition) worked out at 17 mm; in the assay on E. coli UC 51 (Table II) it was 16 mm; in the assay on K. pneumoniae UC 57 (Table II) it was 23 mm; in the assay on S. gallinarum UC 265 (Table II), 18 mm; in the assay with B. subtilis UC 564 (Table II) it was 26 mm. Moreover, the zone of inhibition at 1000 µg/mL in the assay with S. aureus UC 80 (UC80, 1 mg/ml, Table II, read-out: Zones of Inhibition) came to 24 mm; in the assay on B. cereus UC 3145 (UC3145, 1 mg/ml, Table II, read-out: Zones of Inhibition), 22 mm; in the assay with S. schottmuelleri UC 126 [1] (Table II), 21 mm; in the assay on S. lutea UC 130 (Table II), 17 mm; in the assay on Ps. aeruginosa UC 95 [6], 17 mm; in the assay on E. coli UC 51 (Table II), 24 mm. Besides, the zone of inhibition at 1000 µg/mL with K. pneumoniae UC 57 (Table II) was found to be 30 mm; in the assay with S. gallinarum UC 265 (Table II), 27 mm; with P. vulgaris UC 93 [2] (Table II) it was 24 mm; with B. subtilis UC 564 (Table II) it was 35 mm.
For `NC[C@H]1O[C@H](O[C@@H]2[C@@H](N)C[C@@H](N)C[C@H]2O[C@H]2O[C@H](CO)[C@@H](O)[C@H]2O)[C@H](N)[C@@H](O)[C@@H]1O` [Compound XVα, O-2,6-diamino-2,6-dideoxy-α-D-glucopyranosyl (1→4)-O-[α-D-ribofuranosyl(1→5)]-2,6-dieoxy-D-streptamine], the zone of inhibition at 100 µg/mL in the assay with S. aureus UC 80 (UC80, Table I, read-out: Zones of Inhibition) is 17 mm; with E. coli UC 51 (Table I) it was 17 mm; with K. pneumoniae UC 57 (Table I) it was 23 mm; in the assay on S. gallinarum UC 265 (Table I), 17 mm; in the assay with B. subtilis UC 564 (Table I) it was 25 mm. Further, the zone of inhibition at 1000 µg/mL in the assay with S. aureus UC 80 (UC80, 1 mg/ml, Table I, read-out: Zones of Inhibition) amounted to 25 mm; in the assay on B. cereus UC 3145 (UC3145, read-out: Zones of Inhibition, 1 mg/ml, Table I) it was 20 mm; with S. schottmuelleri UC 126 [1] (Table I), 20 mm; in the assay on S. lutea UC 130 (Table I), 16 mm; in the assay on E. coli UC 51 (Table I), 24 mm; in the assay with K. pneumoniae UC 57 (Table I) it was 31 mm. Further, the zone of inhibition at 1000 µg/mL amounted to 26 mm in the assay with S. gallinarum UC 265 (Table I), 23 mm in the assay on P. vulgaris UC 93 [2] (Table I) and 34 mm with B. subtilis UC 564 (Table I). Besides, the MIC with S. flexneri UC 143 is 500 µg/mL (≈ 1140 µM); in the assay on S. pneumoniae I UC 41 (UC41, 20 h), 125 µg/mL (≈ 285 µM); in the assay on S. typhi UC 215, 62.5 µg/mL (≈ 143 µM); in the assay with S. schottmuelleri UC 126 [3], 125 µg/mL (≈ 285 µM); in the assay on S. pyogenes UC 152 (UC152, 20 h) it was 31.2 µg/mL (≈ 71.2 µM); in the assay with P. mirabilis UC 6671, more than 500 µg/mL. In addition, the MIC is 125 µg/mL (≈ 285 µM) in the assay with S. aureus UC 76 (UC76, 20 h); more than 500 µg/mL in the assay on S. faecalis UC 694; more than 500 µg/mL with Ps. aeruginosa UC 95 [4]; more than 500 µg/mL in the assay with P. rettgeri UC 339; 125 µg/mL (≈ 285 µM) with P. morganii UC 3186 (UC3186, 20 h); 500 µg/mL (≈ 1140 µM) in the assay on P. vulgaris UC 93 [5]. Besides, the MIC turned out to be 250 µg/mL (≈ 570 µM) with E. coli UC 311; 500 µg/mL (≈ 1140 µM) in the assay on S. marcescens UC 131; 15.6 µg/mL (≈ 35.6 µM) with K. pneumoniae UC 58 (UC58, 20 h).
